Measured values: patent publication US8748601B2, “Selective serine/threonine kinase inhibitors” (The Regents of the University of California, priority 2003, dated 2014)

What was measured:
Rsk2 [1] = experiment: Labeling by biotin-1 / bodipy-1 in Xenopus egg cytosol and competition by unlabeled compound; format: binding; conditions: for Labeling of 90 kD protein by bodipy-1 after pretreatment: pretreatment with 1 μM
Protocol: To test whether compounds 1 and 2 (Formula IA, chloromethyl ketone and methyl enoate respectively) bind selectively and irreversibly to Rsk2, compound 1 was labeled with biotin. Xenopus egg cytosol was treated with 1 μM biotin-1. A major biotinylated 90 kD protein was detected by immunoblot analysis with streptavidin-HRP. Labeling of p90 with biotin-1 was abolished by pretreatment of the cytosol 1 μM of unlabeled 1. Thus, p90 is completely saturated by 1 at a concentration of 1 μM.
Labeling was abolished by pretreatment with 1 μM of 1 or 2.

Rsk = Rsk autophosphorylation of Ser381 in Swiss 3T3 cells (Western blot); format: cell-based; conditions: 5 μM, 1 hour, growth factors 10 min
Protocol: (§1) Enoate 2 blocks Rsk autophosphorylation of Ser381, which is catalyzed by its cysteine-containing C-terminal kinase domain. […] Swiss 3T3 cells were serum starved for 24 hours and treated with 5 μM enoate or 0.1% DMSO (control) for 1 hour. The cells were then stimulated with growth factors for 10 min. and lysed with 1×SDS-PAGE sample buffer. Proteins were separated by SDS-PAGE and transferred to nitrocellulose membranes for Western blot analysis. Phosphorylation-specific antibodies against Rsk and Erk were purchased from Cell Signaling. Antibodies against nonphosphorylated Rsk and Erk were purchased from Santa Cruz Biotech and Cell Signaling, respectively. (FIG. 4.)

Erk = Erk phosphorylation in Swiss 3T3 cells (Western blot); format: cell-based; conditions: 5 μM, 1 hour, growth factors 10 min
Protocol: as §1

animal carcinoma model = conditions: compared with reversible quinazoline inhibitors; cited from earlier work
V281C v-Src (v-Src-es1) [2] = experiment: Covalent labeling by biotin-cmk in NIH3T3 fibroblasts expressing v-Src-es1; format: cell-based; conditions: biotin-cmk 2 μM, whole cell lysates
Source text: (§2) To test whether cmk 4 could covalently label and inhibit Src kinases in vivo, we generated NIH3T3 fibroblast cell lines that stably overexpress either a wt v-Src allele or an electrophile-sensitive mutant, V281C v-Src (v-Src-es1). v-Src is constitutively active, and as a result of its expression in these cells, there is a substantial increase in phosphotyrosine levels. […] To test whether cmk 4 forms an irreversible, covalent bond with V281C v-Src, we conjugated biotin to the hydroxypropyl substituent. This point of attachment was chosen based on the model of cmk 4 bound to Hck in which the hydroxypropyl substituent is pointing out into solution.
(§3) NIH3T3 fibroblasts expressing either v-Src-es1 or v-Src were pretreated with increasing concentrations of cmk 4. Whole cells lysates were then prepared and treated with biotin-cmk (2 μM).

wt v-Src [3] = experiment: Covalent labeling by biotin-cmk in NIH3T3 fibroblasts expressing wt v-Src; format: cell-based; conditions: biotin-cmk 2 μM, whole cell lysates
Source text: as §2, §3

wt v-Src [4] = experiment: Global phosphotyrosine levels in NIH3T3 cells expressing wt v-Src; format: cell-based
Source text: (§4) We also investigated whether cmk 4 could block the function of v-Src-es1 in mammalian cells by monitoring global phosphotyrosine levels in cells expressing either wt v-Src or v-Src-es1.

V281C v-Src (v-Src-es1) [5] = molecular target: T1, V281C v-Src (v-Src-es1) (UniProt P00524, V281C, species not given); experiment: Covalent labeling by biotin-cmk in NIH3T3 fibroblasts expressing v-Src-es1; format: cell-based
T1 construct: other: pretreatment of intact cells; lysates treated with biotin; Labeling of v-Src-es1 by biotin-cmk after pretreatment; other: pretreatment of intact cells with 1 μM
Source text: as §2, §3

[6] = tested on: NIH3T3 cells expressing v-Src-es1; experiment: Reversion of transformed morphology in cells expressing v-Src-es1; format: cell-based; conditions: 1 μM, 16 h
Source text: (§5) Overexpression of v-Src in NIH3T3 fibroblasts causes morphological transformation. Nontransformed NIH3T3 cells have a flat morphology, characterized by long bundles of filamentous actin (“stress fibers”) that can be visualized by fluorescence microscopy. In contrast, NIH3T3 cells overexpressing wt v-Src or v-Src-es1 have a disorganized actin cytoskeleton that results in a round morphology. […] Under the same conditions, cells expressing wt v-Src are not affected by cmk 4 and maintain a round morphology (FIG. 8A). The effects of cmk 4 on cell morphology were quantified by counting 100-200 cells under each treatment condition for both wt v-Src and v-Src-es1. Approximately 80% of the cells expressing v-Src-es1 regain a flattened morphology upon treatment with 1 μM cmk 4, whereas less than 2% of cells expressing wt v-Src have actin stress fibers (FIG. 8B).

wt Fyn = wt Fyn (Homo sapiens, UniProt P06241); experiment: wt Fyn kinase activity in vitro; conditions: 30 nM
Val285Cys Fyn = Val285Cys Fyn (Homo sapiens, UniProt P06241, V285C); experiment: Inactivation of engineered Val285Cys Fyn; format: biochemical
[7] = tested on: NIH3T3 cells expressing wt v-Src; experiment: Reversion of transformed morphology in cells expressing wt v-Src; format: cell-based; conditions: 1 μM, 16 h
Source text: as §5

v-Src-es1 = experiment: Global phosphotyrosine levels in NIH3T3 cells expressing v-Src-es1; format: cell-based
Source text: as §4

Rsk2 CTD [8] = molecular target: T2, Rsk2 CTD (Homo sapiens, UniProt P51812); experiment: Rsk2 CTD in vitro kinase assay, wild type; format: biochemical
T2 construct: We tested the halomethylketones against the Rsk2 CTD by adapting an in vitro kinase assay; made in house
Source text: (§6) We tested the halomethylketones against the Rsk2 CTD by adapting an in vitro kinase assay developed by Chrestensen and Sturgill, J, Biol. Chem. 277:27733 (2002).

Rsk2 CTD [9] = molecular target: Rsk2 CTD (Chlorocebus sabaeus, UniProt A0A0D9RPY4); experiment: EGF-stimulated Ser386 phosphorylation in COS-7 cells; format: cell-based; conditions: read-out: Reduction of Ser386 phosphorylation
Source text: (§7) The only known Rsk2 CTD substrate is an autophosphorylation site, Ser386, in the linker region connecting the NTD and CTD. Phosphorylation of Ser386 creates a docking site for another kinase, phosphoinositide-dependent kinase 1 (PDK1), which phosphorylates and activates the NTD. […] The signaling pathway between EGF and Erk1/2 involves at least three protein kinases (EGFR, Raf, and MEK), two of which (EGFR and Raf) have threonine gatekeepers and cysteines in their ATP binding pockets (albeit at different locations relative to Rsk2 Cys436).

Rsk2 CTD Cys436Val = molecular target: T3, Rsk2 CTD Cys436Val (Homo sapiens, UniProt P51812, C436V); experiment: Rsk2 CTD in vitro kinase assay, Cys436Val mutant; format: biochemical
T3 construct: we expressed and purified two CTD mutants, Cys436Val and Thr493Met; made in house
Source text: as §6

Chemical stability = format: physicochemical; conditions: compared with cmk 4
Rsk2 [10] = molecular target: Rsk2 (Homo sapiens, UniProt P51812); experiment: Suppression of labeling by biotinylated fmk in human epithelial cell lysate, Rsk2; format: binding; conditions: pretreatment with unlabeled compound
Source text: A major concern with any pharmacological agent is its selectivity, not only among related family members, but among all other coexpressed proteins.

Erk1/2 = experiment: EGF-stimulated Erk1/2 phosphorylation (Thr202, Tyr204) in COS-7 cells; format: cell-based; conditions: 10 μM
Source text: as §7

Rsk1 = molecular target: T4, Rsk1 (Homo sapiens, UniProt Q15418); experiment: Suppression of labeling by biotinylated fmk in human epithelial cell lysate, Rsk1; format: binding; conditions: pretreatment with unlabeled compound
T4 construct: a crude lysate prepared from human epithelial cells; endogenous in cells
Source text: A major concern with any pharmacological agent is its selectivity, not only among related family members, but among all other coexpressed proteins. To determine the global kinetic selectivity of fmk 5, we added a biotinylated derivative to a crude lysate prepared from human epithelial cells. Only two proteins in the lysate were labeled. […] Affinity purified antibodies raised against a Rsk1 peptide specifically immunoprecipitated the lower band, whereas a Rsk2 monoclonal antibody was specific for the upper band. Both proteins remained in the supernatant when a control rabbit IgG was used.

Rsk2 CTD Thr493Met = molecular target: T5, Rsk2 CTD Thr493Met (Homo sapiens, UniProt P51812, T493M); experiment: Rsk2 CTD in vitro kinase assay, Thr493Met mutant; format: biochemical
T5 construct: we expressed and purified two CTD mutants, Cys436Val and Thr493Met; made in house
Source text: as §6

COC(=O)/C=C/c1c(-c2ccc(C)cc2)c2c(N)ncnc2n1CCCO [Compound 2]
Labeling of 90 kD protein by bodipy-1 after pretreatment (Rsk2 [1]): abolished | Rsk autophosphorylation of Ser381 (Rsk): blocks | Erk phosphorylation (Erk): does not block

C=CC(=O)Nc1ccc2ncnc(Nc3cccc(Br)c3)c2c1 [PD 168393]
Efficacy in an animal carcinoma model (animal carcinoma model): far superior to reversible quinazoline inhibitors

Cc1ccc(-c2c(C(=O)CCl)n(CCCOC(=O)NCCCCNC(=O)CCCCC3SCC4NC(=O)NC43)c3ncnc(N)c23)cc1 (stereo not drawn) [biotin-cmk]
Covalent labeling of v-Src-es1 (V281C v-Src (v-Src-es1) [2]): covalently targeted v-Src-es1 | Covalent labeling of wt v-Src (wt v-Src [3]): absence of covalent labeling

Cc1ccc(-c2c(C(=O)CCl)n(CCCO)c3ncnc(N)c23)cc1 [cmk 4]
Phosphotyrosine in cells overexpressing wt v-Src (wt v-Src [4]; 1 μM): no apparent effect | Effect on wt v-Src in mammalian cells (wt v-Src [4]; summary statement): no effect | Labeling of v-Src-es1 by biotin-cmk after pretreatment (V281C v-Src (v-Src-es1) [5]; pretreatment of intact cells with 1 μM): abolished | IC50 (V281C v-Src (v-Src-es1) [5]; read-out: IC50 for blocking labeling of v-Src-es1 by biotin-cmk, pretreatment of intact cells, lysates treated with biotin-cmk 2 μM): < 100 nM | Cells expressing v-Src-es1 that regain a flattened morphology [6]: Approximately 80% | Transformed morphology of cells expressing v-Src-es1 ([6]; FITC-phallodin staining): caused reversion of the transformed morphology | Concentration at which p90 is completely saturated (Rsk2 [1]; Xenopus egg cytosol): 1 µM | Labeling of p90 with biotin-1 after pretreatment with unlabeled compound (Rsk2 [1]; pretreatment of the cytosol 1 μM, streptavidin-HRP immunoblot): abolished | Labeling of 90 kD protein by bodipy-1 after pretreatment (Rsk2 [1]): abolished | Effect on wild-type (WT) Fyn (wt Fyn): no effect | Fold more potent than fmk 5 toward Val285Cys Fyn (Val285Cys Fyn): 100 fold | Inactivation of engineered Fyn with cysteine in place of Val285 (Val285Cys Fyn; 30 nM): rapidly inactivated | Time to inactivate Val285Cys Fyn (Val285Cys Fyn; 100 nM, 1 mM ATP): less than 5 min | Cells expressing wt v-Src that have actin stress fibers [7]: less than 2% | Morphology of cells expressing wt v-Src [7]: not affected | Detectable phosphotyrosine in cells overexpressing v-Src-es1 (v-Src-es1; 1 μM): near-complete reduction | Tyrosine phosphorylation in cells overexpressing v-Src-es1 (v-Src-es1; increasing concentrations): dose-dependent decrease | Function of mutant v-Src in mammalian cells (v-Src-es1; summary statement): irreversibly blocked the function | Inhibition of kinase activity of Rsk2 CTD (Rsk2 CTD [8]): potently inhibited

Cc1ccc(-c2c(C(=O)CF)n(CCCO)c3ncnc(N)c23)cc1 [fmk 5]
inhibition at 3 µM (Rsk2 CTD [9]): 95% | Inhibition and covalent modification of Cys436Val mutant (Rsk2 CTD Cys436Val): resistant to inhibition and covalent modification | Chemical stability (Chemical stability): greater chemical stability | Concentration for complete saturation of Rsk2 (Rsk2 [10]): 1 µM | EGF-stimulated phosphorylation of Erk1/2 Thr202 and Tyr204 (Erk1/2): no effect | Concentration for complete saturation of Rsk1 (Rsk1): 0.3 µM | Inhibition and covalent modification of Thr493Met mutant (Rsk2 CTD Thr493Met): resistant to inhibition and covalent modification | Inhibition of kinase activity of Rsk2 CTD (Rsk2 CTD [8]): potently inhibited | Half-time of inactivation of Rsk2 CTD (Rsk2 CTD [8]; 1 μM, 1 mM ATP): less than 10 min

Cc1ccc(-c2cn(CCCO)c3ncnc(N)c23)cc1 [scaffold A]
Potency relative to fmk 5 against the Cys436Val mutant (Rsk2 CTD Cys436Val): much more potent than fmk 5 | IC50 (Rsk2 CTD Cys436Val; Rsk2 CTD C436V): 430 ± 140 nM | IC50 (Rsk2 CTD Thr493Met; Rsk2 CTD mutant, read-out: IC50 values, T439M): > 30000 nM | Fold weaker than fmk 5 toward WT Rsk2 (Rsk2 CTD [8]): 80 fold | IC50 (Rsk2 CTD [8]; Rsk2 CTD WT, read-out: IC50 values, WT): 1200 ± 80 nM
